Data taken from US10550150B2, “Short-chain peptides as Kappa (κ) opioid receptors (KOR) agonist” (CADILA HEALTHCARE LIMITED, priority 2015, dated 2020).
Read-outs that look alike come from different tables or passages of the source.

Experiments:
[1] = target: T1, Kappa (κ) opioid receptors (KOR) (Homo sapiens, UniProt P41145); assay: In vitro KOR agonistic activity, cAMP based functional assay; assay type: cell-based
T1 construct: host or cells: unnamed cells grown in Ham's F-12 medium
Description: a) In Vitro (EC50) Determination, Using cAMP Based Functional Assay:
In vitro, KOR agonistic activity of test compounds were assessed using cAMP based functional assay. A 96-well plate was seeded at the density of 30,000 cells/well in 100 μl/well of complete Ham's F-12 medium. After seeding, the plates were incubated overnight at 37° C., 5% CO2, in CO2 Incubator. Overnight medium was discarded and plate washed with 100 μl/well of sterile PBS. Then 90 μl of 0.1 mM IBMX containing 0.5% Fatty acid free BSA in plain HamsF12 was added to each well. This was allowed to incubate for 30 minutes at 37° C., 5% CO2. Forskolin 20 μM in 0.5% Fatty acid free BSA was added to each well and allowed to incubate at room temperature for 5 minutes. Dilution of test compounds was made at 200× in DMSO and then diluted 1:10 times in BSA containing plain HamsF12. Agonist (test compounds, in 10% DMSO) was added to each well (5 μl) and allowed to incubate for 20 minutes at 37° C., 5% CO2. After 20 minutes, media was aspirated from the wells and the wells were washed with 1×PBS. Cell lysis buffer 4× (Arbor Assays, Cat # X074-60 ML) was diluted 1:4 in MilliQ and 90 μl of this buffer was added per well. Cells were allowed to shake at 500 rpm, room temperature for 20 minutes. Cell lysate was collected in 1.5 ml eppendorf tubes and centrifuged at 13.2 k rpm, 4° C. for 15 minutes. 50 μl of the supernatant of cell lysate was then used for cAMP estimation by cAMP direct ELISA kit (Arbor Assays, Cat # K019-H5).

[2] = tested on: acetic acid induced writhing; assay: Acetic acid-induced writhing model (antinociceptive activity); assay type: in vivo; details: acetic acid induced pain model, ICR mice (n = 6), iv
Description: In Vivo (ED50) Determination, Using Acetic Acid-Induced Writhing Model
The acetic acid induced writhing assay can detect antinociceptive activity for opioid drug, acting at peripheral, spinal and supraspinal levels. Animals were fasted 12 to 16 h prior testing. The nociceptive response (abdominal contractions or writhes) was induced by diluted acetic acid (0.6%, 10 ml/kg, for mice and 2.5%, 0.5 ml/rat) administered intraperitoneally (i.p.) at time 0 min.
In mouse experiments, compounds were administered orally, intravenously (i.v.) or subcutaneously (s.c.). To determine the antinociceptive potency and efficacy, full dose-response curves were constructed with test compounds, given 5 min prior to acetic acid administration. The duration of action was determined by using increasing pretreatment time (5, 60, and 120 min.), prior to acetic acid administration, for a sub-maximally effective dose defined during the dose-response curve study. In rat experiments, compounds were administered orally, intravenously (i.v.) or subcutaneously (s.c.), 15 min prior to acetic acid administration. The number of writhes was counted over the 15 min period following acetic acid administration. A writhe is defined as a constriction of the abdominal area, often with extension of the hind legs. Percentage maximum possible effect (MPE) was calculated as: % MPE=100−[(No. of writhes in test compound treated animal/No. of writhes in vehicle treated animal)]×100. ED50 dose was determined using GraphPad Prism.

[3] = cAMP based functional assay, forskolin stimulated, read-out: In-vitro EC50
[4] = refers to Table-4, read-out: in vitro KOR agonistic activity EC50

T1 sequence (P41145 whole entry): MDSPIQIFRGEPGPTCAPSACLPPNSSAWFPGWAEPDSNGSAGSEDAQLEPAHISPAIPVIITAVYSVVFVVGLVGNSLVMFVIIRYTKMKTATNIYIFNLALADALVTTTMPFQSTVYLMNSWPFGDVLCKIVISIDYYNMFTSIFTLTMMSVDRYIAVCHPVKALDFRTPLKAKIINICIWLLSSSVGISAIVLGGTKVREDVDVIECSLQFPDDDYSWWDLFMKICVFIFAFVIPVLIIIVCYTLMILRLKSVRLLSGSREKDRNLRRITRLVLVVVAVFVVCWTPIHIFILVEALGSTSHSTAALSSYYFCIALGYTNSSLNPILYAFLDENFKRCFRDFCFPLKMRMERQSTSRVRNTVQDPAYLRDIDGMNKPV

Q: With `CC(C)CC(NC(=O)C(Cc1ccccc1)NC(=O)C(N)Cc1ccccc1)C(=O)NC(CCCCN)C(=O)N1CC2=C(CN(CC(=O)O)C2)C1` (stereo not shown) [Compound 4] as the molecule, how does the EC50 [1, 3] read?
A: The EC50 was 0.047 nM.

Q: And the EC50 [1, 4]?
A: Its EC50 is < 0.1 nM.

Q: What does the source list for `CC(C)CC(NC(=O)C(Cc1ccccc1)NC(=O)C(N)Cc1ccccc1)C(=O)NC(CCCCN)C(=O)N1CC2=C(CN(CC(N)=O)C2)C1` (stereo not shown) [Compound 5]?
A: EC50 [1, 3]: 0.009 nM; EC50 [1, 4]: < 0.1 nM; In-vivo ED50 [2]: 0.07 mpk

Q: How did the EC50 [1, 3] turn out when `CC(C)CC(NC(=O)C(Cc1ccccc1)NC(=O)C(N)Cc1ccccc1)C(=O)NC(CCCCN)C(=O)N1CC2=C(CN(C(=O)CO)C2)C1` (stereo not shown) [Compound 10] was run?
A: The EC50 was 0.4 nM.

Q: Which “In-vivo ED50” value [2] does the source give for `CC(C)CC(NC(=O)C(Cc1ccccc1)NC(=O)C(N)Cc1ccccc1)C(=O)NC(CCCCN)C(=O)N1CC2CNCC2C1` (stereo not shown) [Compound 13] here?
A: Its value is 1 mpk.

Q: For `CCOC(=O)CN1CC2CN(C(=O)C(CCCCN)NC(=O)C(CC(C)C)NC(=O)C(Cc3ccccc3)NC(=O)C(N)Cc3ccccc3)CC2C1` (stereo not shown) [Compound 15], which EC50 [1, 3] is on record?
A: The EC50 was 0.007 nM.

Q: What about the EC50 [1, 4] of the same molecule?
A: The EC50 was < 0.1 nM.

Q: What about the “In-vivo ED50” value [2] of the same molecule?
A: The value was 0.1 mpk.

Q: How did the EC50 [1, 3] turn out when `CC(C)CC(NC(=O)C(Cc1ccccc1)NC(=O)C(N)Cc1ccccc1)C(=O)NC(CCCCN)C(=O)N1CC2CN(CC(=O)O)CC2C1` (stereo not shown) [Compound 16] was run?
A: The EC50 was 0.004 nM.

Q: And the EC50 [1, 4]?
A: The EC50 was < 0.1 nM.

Q: And the “In-vivo ED50” value [2]?
A: The value was 0.1 mpk.

Q: For `CC(C)CC(NC(=O)C(Cc1ccccc1)NC(=O)C(N)Cc1ccccc1)C(=O)NC(CCCCN)C(=O)N1CC2CN(CC(N)=O)CC2C1` (stereo not drawn) [Compound 17, H2N-Phe-Phe-Leu-Lys-Hpp-CONH2], which EC50 [1, 3] is on record?
A: Its EC50 is 0.38 nM.

Q: With `CC(C)CC(NC(=O)C(Cc1ccccc1)NC(=O)C(N)Cc1ccccc1)C(=O)NC(CCCCN)C(=O)N1CC2CN(CCO)CC2C1` (stereo not shown) [Compound 18] as the molecule, how does the “In-vivo ED50” value [2] read?
A: Its value is 1 mpk.

Q: How did the “In-vivo ED50” value [2] turn out when `CC(C)CC(NC(=O)C(Cc1ccccc1)NC(=O)C(N)Cc1ccccc1)C(=O)NC(CCCCN)C(=O)N1CC2CN(S(C)(=O)=O)CC2C1` (stereo not shown) [Compound 19] was run?
A: Its value is 0.28 mpk.

Q: How did the EC50 [1, 3] turn out when `CC(C)CC(NC(=O)C(Cc1ccccc1)NC(=O)C(N)Cc1ccccc1)C(=O)NC(CCCCN)C(=O)N1CC2CC(=O)CC2C1` (stereo not shown) [Compound 23] was run?
A: Its EC50 is 0.085 nM.

Q: With `CC(C)CC(NC(=O)C(Cc1ccccc1)NC(=O)C(N)Cc1ccccc1)C(=O)NC(CCCCN)C(=O)N1CC2CC(CN)CC2C1` (stereo not shown) [Compound 26] as the molecule, how does the EC50 [1, 3] read?
A: Its EC50 is 0.22 nM.

Q: For `CCOC(=O)C1CC2CN(C(=O)C(CCCCN)NC(=O)C(CC(C)C)NC(=O)C(Cc3ccccc3)NC(=O)C(N)Cc3ccccc3)CC2C1` (stereo not shown) [Compound 27], which EC50 [1, 3] is on record?
A: Its EC50 is 0.009 nM.

Q: How did the EC50 [1, 3] turn out when `CC(C)CC(NC(=O)C(Cc1ccccc1)NC(=O)C(N)Cc1ccccc1)C(=O)NC(CCCCN)C(=O)N1C2CNCC1C2` (stereo not shown) [Compound 32] was run?
A: Its EC50 is 0.02 nM.

Q: `CC(C)CC(NC(=O)C(Cc1ccccc1)NC(=O)C(N)Cc1ccccc1)C(=O)NC(CCCCN)C(=O)N1C2CC1CN(C)C2` (stereo not shown) [Compound 33] was tested. Which EC50 [1, 3] did it give?
A: The EC50 was 0.009 nM.

Q: Which EC50 [1, 3] does the source give for `CC(C)CC(NC(=O)C(Cc1ccccc1)NC(=O)C(N)Cc1ccccc1)C(=O)NC(CCCCN)C(=O)N1C2CC1CN(Cc1ccccc1)C2` (stereo not shown) [Compound 34, N-(6-amino-1-(3-benzyl-3,6-diazabicyclo[3.1.1]heptan-6-yl)-1-oxohexan-2-yl)-2-(2-(2-amino-3-phenylpropanamido)-3-phenylpropanamido)-4-methylpentanamide] here?
A: The EC50 was 0.088 nM.

Q: Which results are given for `CCOC(=O)CN1CC2CC(C1)N2C(=O)C(CCCCN)NC(=O)C(CC(C)C)NC(=O)C(Cc1ccccc1)NC(=O)C(N)Cc1ccccc1` (stereo not shown) [Compound 35]?
A: EC50 [1, 3]: 0.01 nM; EC50 [1, 4]: < 0.1 nM; In-vivo ED50 [2]: 0.03 mpk

Q: How did the EC50 [1, 3] turn out when `CC(C)CC(NC(=O)C(Cc1ccccc1)NC(=O)C(N)Cc1ccccc1)C(=O)NC(CCCCN)C(=O)N1C2CC1CN(CC(=O)O)C2` (stereo not shown) [Compound 36] was run?
A: The EC50 was 0.015 nM.

Q: And the EC50 [1, 4]?
A: The EC50 was < 0.1 nM.

Q: And the “In-vivo ED50” value [2]?
A: Its value is 0.04 mpk.

Q: What does the source list for `CC(C)CC(NC(=O)C(Cc1ccccc1)NC(=O)C(N)Cc1ccccc1)C(=O)NC(CCCCN)C(=O)N1C2CC1CN(CC(N)=O)C2` (stereo not shown) [Compound 37]?
A: EC50 [1, 3]: 0.083 nM; EC50 [1, 4]: < 0.1 nM; In-vivo ED50 [2]: 0.08 mpk
